# Results from patent US11241455B2, “Methods of treating disease by metabolic control of T-cell differentiation” (The J. David Gladstone Institutes, a testamentary trust …, priority 2016, dated 2022).
# Experiments:
# [1] = test system: differentiating TH17 cells; assay: U-13C glutamine flux analysis in differentiating TH17 cells; type: cell-based, mouse; conditions: 2 mM U-13C-glutamine for 4 hours
# Procedure: CD4 naïve T cells, differentiating TH17 or iTreg cells (68 hours) were incubated with fresh media prior to labeling. The cells were then cultured for 4 hours at 37° C. with medium where the glutamine was replaced with the corresponding stable isotope label: 2 mM U-^13C glutamine or 2 mM ^15N-α-glutamine for 4 hours at 37° C. The cells were quickly collected and quickly washed with phosphate buffer saline (PBS), pelleted, and snap frozen in liquid nitrogen. The frozen samples were kept in −80° C. until extraction. Cell extracts were prepared by first adding 80/20 MeOH/H2O at −60° C. to the frozen pellets and collecting the supernatant after centrifugation at 4° C. The extracted samples were analyzed by high-resolution liquid-chromatography-mass spectrometry. Unlabeled glutamine-fed cells were used as background. For negative mode metabolomics: Cell extracts obtained as described above were analyzed for relative abundance of metabolites by liquid chromatography-triple quadrupole mass spectrometry (LC-MS) using scheduled selective reaction monitoring (SRM) for each metabolite of interest, with the detector set to negative mode. Prior to injection, dried extracts were reconstituted in LC-MS grade water. LC separation was achieved by reverse-phase ion-pairing chromatography.
# [2] = test system: EAE induced in C57BL/6 mice; assay: Mouse experimental autoimmune encephalitis (EAE) model; type: in vivo
# Procedure: EAE was induced by immunizing mice (12 weeks old, 11-12 mice/group) twice with 300 μg of MOG35-55 peptide (amino acids 35-55; MEVGWYRSPFSROVHLYRNGK (SEQ ID NO: 2)) emulsified in complete Freund's adjuvant, followed by pertussis toxin injection and analyzed. The disease scores were assigned on a scale of 0-5 as follows: 0, none; 1, limp tail or waddling gait with tail tonicity; 2, wobbly gait; 3, hind limb paralysis; 4, hind limb and forelimb paralysis; 5, death. When the disease phenotype was very obvious (average score>1), PBS or (aminooxy)-acetic acid (AOA) (750 μg/mice) was intraperitoneal (i.p.) injected every day. After 8 days of administration of AOA or PBS, the mice were anesthetized, and cells infiltrated into brain and spinal cord were collected for analysis. When indicated, the statistical significance was determined by Student's t test (*, p<0.05; **, p<0.01; ***, p<0.001). All animal work was approved by the Institutional Animal Care and Use Committee (IACUC).
# The in vitro findings that AOA regulates the TH17/iTreg balance prompted an investigation into the effects of AOA in vivo in the context of a pathologic TH17-dependent disease state. TH17 cells are the major pathogenic cell population in experimental autoimmune encephalomyelitis (EAE), a mouse model of multiple sclerosis, but FOXP3+regulatory T cells suppress TH17 cell-mediated inflammatory diseases, such as EAE. In the in vitro studies, AOA skewed TH17 differentiation towards FOXP3+ iTreg cells and, therefore, offers a potential to treat TH17-mediated autoimmune diseases. To test this possibility, EAE was induced in C57BL/6 mice by immunizing with myelin oligodendrocyte glycoprotein peptide (MOG35-55) in complete Freund's adjuvant (CFA) as described. AOA or control vehicle was injected daily intraperitoneally after a majority of the mice began to show obvious neurological signs, including tail paralysis that progressed to hind and front limb paralysis (disease score>1). […] The ratio of FOXP3+ cells to IL17+ cells is much higher in AOA-treated mice than in control mice (FIG. 4c).
# [3] = brain and spinal cord infiltrated T cells after 8 days of AOA 750 μg/mice i.p. daily, p<0.01
structure (smiles),measurement,setting,value
"NOCC(=O)O [AOA, (aminooxy)-acetic acid]","de novo synthesis of α-KG and 2-HG (U-13C labeled, normalized to U-13C-glutamine)",[1],inhibited
same,"recovery from EAE diseases (disease scores, scale of 0-5)","[2]; 750 μg/mice i.p. every day, started when average score>1, versus PBS",significant recovery from EAE diseases
same,ratio of FOXP3+ cells to IL17+ cells,"[2]; AOA-treated mice versus control mice, CNS infiltrated T cells",much higher
same,percentage of FOXP3+ T cells in the central nervous system,[2]; [3],increased
same,percentage of TH17 cells in the central nervous system,[2]; [3],significantly reduced
